IC50 data for twelve compounds are collected here from US20250171426A1, “PYRIMIDINEDIONE-BASED COMPOUNDS AS AXL, C-MET, AND MER INHIBITORS AND METHODS OF USE THEREOF” (CMG Pharmaceutical Co., Ltd., priority 2022, published 2025).

Each structure is given as a SMILES string.

Holding throughout (type): biochemical
Details in all cases: 10 μM ATP, 60 min, ADP-GLO luminescence
(In ADP-Glo the light output rises with the ADP produced.)

One assay concerns the target T1, MER (Homo sapiens, UniProt Q12866).
T1 sequence (Q12866 21-999): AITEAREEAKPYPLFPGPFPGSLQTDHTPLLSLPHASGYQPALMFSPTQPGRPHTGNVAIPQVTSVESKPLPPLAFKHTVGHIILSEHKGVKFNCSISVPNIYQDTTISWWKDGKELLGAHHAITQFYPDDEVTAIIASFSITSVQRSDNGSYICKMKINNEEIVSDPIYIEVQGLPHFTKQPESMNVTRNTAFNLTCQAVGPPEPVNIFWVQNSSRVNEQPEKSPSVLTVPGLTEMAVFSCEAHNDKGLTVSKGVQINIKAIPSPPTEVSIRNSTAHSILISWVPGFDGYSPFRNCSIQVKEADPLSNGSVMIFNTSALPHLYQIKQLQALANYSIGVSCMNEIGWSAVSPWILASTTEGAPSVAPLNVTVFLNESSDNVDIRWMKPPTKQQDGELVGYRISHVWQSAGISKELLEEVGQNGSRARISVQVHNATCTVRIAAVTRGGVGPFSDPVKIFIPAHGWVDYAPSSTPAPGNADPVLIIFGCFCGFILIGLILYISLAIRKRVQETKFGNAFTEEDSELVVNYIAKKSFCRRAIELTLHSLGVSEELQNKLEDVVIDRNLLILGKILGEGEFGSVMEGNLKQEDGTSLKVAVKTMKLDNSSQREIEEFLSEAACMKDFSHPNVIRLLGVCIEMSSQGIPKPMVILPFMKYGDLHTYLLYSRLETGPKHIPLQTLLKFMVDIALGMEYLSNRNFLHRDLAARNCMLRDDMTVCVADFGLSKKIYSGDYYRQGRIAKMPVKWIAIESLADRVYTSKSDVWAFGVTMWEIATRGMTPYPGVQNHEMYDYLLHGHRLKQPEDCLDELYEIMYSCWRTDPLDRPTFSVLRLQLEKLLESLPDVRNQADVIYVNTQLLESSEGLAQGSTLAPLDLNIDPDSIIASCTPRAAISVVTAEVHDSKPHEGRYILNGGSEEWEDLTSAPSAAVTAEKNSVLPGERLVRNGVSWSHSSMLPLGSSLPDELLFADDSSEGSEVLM
Put plainly: Enzymatic assay (ADP-Glo kinase reaction), MER. In short, it runs like this: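 ADP-Glo luminescence assay of MER in tyrosine kinase buffer with 0.2 μg/μL poly(Glu4,Tyr1) substrate and 10 μM ATP. Serially diluted inhibitor reacted 60 min at room temperature. IC50 taken from luminescence after ADP-Glo and detection steps.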

The target of a further assay is c-MET (Homo sapiens, UniProt P08581). In words: Enzymatic assay (ADP-Glo kinase reaction), c-MET. The method, boiled down: (§1)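 For both AXL and c-MET, reactions in tyrosine kinase buffer used 0.2 μg/μL poly(Glu4,Tyr1) and 10 μM ATP with serially diluted inhibitor, 60 min at room temperature. ADP formed was read by ADP-Glo luminescence after 40 min reagent incubation.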
Sequence of c-MET (P08581 25-1390): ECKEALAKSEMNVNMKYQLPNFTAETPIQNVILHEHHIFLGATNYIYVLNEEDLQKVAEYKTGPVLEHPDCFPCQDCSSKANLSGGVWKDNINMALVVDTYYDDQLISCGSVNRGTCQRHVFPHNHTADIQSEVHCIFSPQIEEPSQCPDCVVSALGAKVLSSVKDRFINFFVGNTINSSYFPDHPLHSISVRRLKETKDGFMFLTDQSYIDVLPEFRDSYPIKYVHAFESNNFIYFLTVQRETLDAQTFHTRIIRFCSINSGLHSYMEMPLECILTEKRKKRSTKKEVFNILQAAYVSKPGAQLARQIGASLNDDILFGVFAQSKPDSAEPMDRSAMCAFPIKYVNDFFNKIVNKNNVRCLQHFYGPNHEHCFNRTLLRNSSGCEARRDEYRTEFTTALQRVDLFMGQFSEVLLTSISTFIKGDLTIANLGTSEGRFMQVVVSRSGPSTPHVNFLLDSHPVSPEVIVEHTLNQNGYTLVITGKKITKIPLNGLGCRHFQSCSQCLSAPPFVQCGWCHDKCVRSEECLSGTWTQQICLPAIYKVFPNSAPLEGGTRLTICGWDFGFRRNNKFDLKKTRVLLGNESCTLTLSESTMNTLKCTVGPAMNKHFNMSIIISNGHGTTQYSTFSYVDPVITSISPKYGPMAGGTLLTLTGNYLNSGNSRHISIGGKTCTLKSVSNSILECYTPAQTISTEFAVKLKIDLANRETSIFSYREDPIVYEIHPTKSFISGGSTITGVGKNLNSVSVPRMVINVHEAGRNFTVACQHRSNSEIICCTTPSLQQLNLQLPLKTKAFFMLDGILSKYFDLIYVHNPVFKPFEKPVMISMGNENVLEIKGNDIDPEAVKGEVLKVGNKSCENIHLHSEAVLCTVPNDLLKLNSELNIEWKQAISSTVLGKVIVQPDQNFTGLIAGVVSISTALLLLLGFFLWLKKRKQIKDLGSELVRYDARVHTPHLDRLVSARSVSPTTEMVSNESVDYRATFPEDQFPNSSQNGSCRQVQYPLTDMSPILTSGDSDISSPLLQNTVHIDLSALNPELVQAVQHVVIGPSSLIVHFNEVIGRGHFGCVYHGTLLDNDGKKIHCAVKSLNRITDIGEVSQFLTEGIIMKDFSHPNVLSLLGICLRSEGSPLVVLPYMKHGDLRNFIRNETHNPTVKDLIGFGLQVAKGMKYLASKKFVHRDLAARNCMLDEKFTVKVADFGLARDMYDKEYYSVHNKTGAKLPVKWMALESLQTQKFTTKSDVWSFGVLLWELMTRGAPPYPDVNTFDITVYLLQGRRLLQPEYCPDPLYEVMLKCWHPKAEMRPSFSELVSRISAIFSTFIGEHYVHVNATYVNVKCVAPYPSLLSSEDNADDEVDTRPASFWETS

The target of the next assay is T2, AXL (Homo sapiens, UniProt P30530).
T2 sequence (P30530 26-894): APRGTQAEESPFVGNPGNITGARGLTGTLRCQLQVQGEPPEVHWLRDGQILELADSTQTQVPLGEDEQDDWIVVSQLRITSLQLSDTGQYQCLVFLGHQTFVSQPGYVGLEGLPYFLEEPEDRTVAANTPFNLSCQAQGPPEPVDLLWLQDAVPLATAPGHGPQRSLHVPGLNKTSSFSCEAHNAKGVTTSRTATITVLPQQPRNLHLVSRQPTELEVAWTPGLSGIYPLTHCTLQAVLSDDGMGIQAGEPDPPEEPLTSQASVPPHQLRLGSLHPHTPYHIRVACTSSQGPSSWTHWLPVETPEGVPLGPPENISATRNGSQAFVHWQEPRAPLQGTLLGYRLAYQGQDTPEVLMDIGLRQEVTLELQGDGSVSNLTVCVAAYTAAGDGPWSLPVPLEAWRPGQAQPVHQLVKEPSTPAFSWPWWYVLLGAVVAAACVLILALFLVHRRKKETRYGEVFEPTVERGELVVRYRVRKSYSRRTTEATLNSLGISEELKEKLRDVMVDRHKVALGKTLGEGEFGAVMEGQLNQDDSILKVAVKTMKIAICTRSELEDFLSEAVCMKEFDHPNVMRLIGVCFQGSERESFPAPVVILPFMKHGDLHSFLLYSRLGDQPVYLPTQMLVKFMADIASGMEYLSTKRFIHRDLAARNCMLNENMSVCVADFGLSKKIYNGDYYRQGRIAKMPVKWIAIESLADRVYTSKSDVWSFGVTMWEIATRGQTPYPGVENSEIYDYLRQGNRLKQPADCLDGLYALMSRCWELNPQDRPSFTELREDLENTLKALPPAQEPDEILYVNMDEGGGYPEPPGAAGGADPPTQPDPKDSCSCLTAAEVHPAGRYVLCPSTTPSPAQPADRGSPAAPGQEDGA
In words: Enzymatic assay (ADP-Glo kinase reaction), AXL. In short, it runs like this: as §1

A word on the IC50: it is the concentration that inhibits the measured activity by half. A low value points to higher potency. As for `CN1CCC(CC#Cc2c(Oc3ccc(NC(=O)c4cn(CC(=O)N(C)C)c(=O)n(-c5ccc(F)cc5)c4=O)cc3F)ccnc2N)CC1` [Example 37, N-(4-((2-amino-3-(3-(1-methylpiperidin-4-yl)prop-1-yn-1-yl)pyridin-4-yl)oxy)-3-fluorophenyl)-1-(2-(dimethylamino)-2-oxoethyl)-3-(4-fluorophenyl)-2,4-dioxo-1,2,3,4-tetrahydropyrimidine-5-carboxamide], the IC50 on MER was less than 10 nM; at c-MET it was less than 10000 nM; at AXL, less than 100 nM.

On to `CN(C)C(=O)Cn1cc(C(=O)Nc2ccc(Oc3ccnc(N)c3C#CCC3CCNCC3)c(F)c2)c(=O)n(-c2ccc(F)cc2)c1=O` [Example 38, N-(4-((2-amino-3-(3-(piperidin-4-yl)prop-1-yn-1-yl)pyridin-4-yl)oxy)-3-fluorophenyl)-1-(2-(dimethylamino)-2-oxoethyl)-3-(4-fluorophenyl)-2,4-dioxo-1,2,3,4-tetrahydropyrimidine-5-carboxamide], for which the figures for the IC50 on MER, against c-MET and on AXL were less than 10 nM, less than 10 nM and less than 100 nM, respectively.

With `Cc1nc(Cn2cc(C(=O)Nc3ccc(Oc4ccnc(N)c4C#CC(C)(C)N4CCOCC4)c(F)c3)c(=O)n(-c3ccc(F)cc3)c2=O)cs1` [Example 39, N-(4-((2-amino-3-(3-methyl-3-morpholinobut-1-yn-1-yl)pyridin-4-yl)oxy)-3-fluorophenyl)-3-(4-fluorophenyl)-1-((2-methylthiazol-4-yl)methyl)-2,4-dioxo-1,2,3,4-tetrahydropyrimidine-5-carboxamide], the half-maximal inhibitory concentration (IC50) against MER, at c-MET and on AXL was less than 100 nM throughout.

Consider `Cc1nc(Cn2cc(C(=O)Nc3ccc(Oc4ccnc(N)c4C#CCN4CCOCC4)c(F)c3)c(=O)n(-c3ccc(F)cc3)c2=O)cs1` [Example 40, N-(4-((2-amino-3-(3-morpholinoprop-1-yn-1-yl)pyridin-4-yl)oxy)-3-fluorophenyl)-3-(4-fluorophenyl)-1-((2-methylthiazol-4-yl)methyl)-2,4-dioxo-1,2,3,4-tetrahydropyrimidine-5-carboxamide], for which the results for the IC50 at MER, on c-MET and at AXL were less than 100 nM, less than 1000 nM and less than 100 nM, respectively.

With `Cc1nc(Cn2cc(C(=O)Nc3ccc(Oc4ccnc(N)c4C#CC(C)(C)N4CCNCC4)c(F)c3)c(=O)n(-c3ccc(F)cc3)c2=O)cs1` [Example 41, N-(4-((2-amino-3-(3-methyl-3-(piperazin-1-yl)but-1-yn-1-yl)pyridin-4-yl)oxy)-3-fluorophenyl)-3-(4-fluorophenyl)-1-((2-methylthiazol-4-yl)methyl)-2,4-dioxo-1,2,3,4-tetrahydropyrimidine-5-carboxamide], the IC50 on MER, on c-MET and against AXL was less than 100 nM in each case.

For `Cc1nc(Cn2cc(C(=O)Nc3ccc(Oc4ccnc(N)c4C#CC(C)(C)N4CCN(C)CC4)c(F)c3)c(=O)n(-c3ccc(F)cc3)c2=O)cs1` [Example 42, N-(4-((2-amino-3-(3-methyl-3-(4-methylpiperazin-1-yl)but-1-yn-1-yl)pyridin-4-yl)oxy)-3-fluorophenyl)-3-(4-fluorophenyl)-1-((2-methylthiazol-4-yl)methyl)-2,4-dioxo-1,2,3,4-tetrahydropyrimidine-5-carboxamide], the IC50 at MER was less than 100 nM; at c-MET, less than 100 nM; at AXL, less than 1000 nM.

For `Cc1nc(Cn2cc(C(=O)Nc3ccc(Oc4ccnc(N)c4C#CCC4CCN(C)CC4)c(F)c3)c(=O)n(-c3ccc(F)cc3)c2=O)cs1` [Example 43, N-(4-((2-amino-3-(3-(1-methylpiperidin-4-yl)prop-1-yn-1-yl)pyridin-4-yl)oxy)-3-fluorophenyl)-3-(4-fluorophenyl)-1-((2-methylthiazol-4-yl)methyl)-2,4-dioxo-1,2,3,4-tetrahydropyrimidine-5-carboxamide], the IC50 against MER, on c-MET and at AXL was less than 10 nM in each case.

As to `Cc1nc(Cn2cc(C(=O)Nc3ccc(Oc4ccnc(N)c4C#CCC4CCNCC4)c(F)c3)c(=O)n(-c3ccc(F)cc3)c2=O)cs1` [Example 44, N-(4-((2-amino-3-(3-(piperidin-4-yl)prop-1-yn-1-yl)pyridin-4-yl)oxy)-3-fluorophenyl)-3-(4-fluorophenyl)-1-((2-methylthiazol-4-yl)methyl)-2,4-dioxo-1,2,3,4-tetrahydropyrimidine-5-carboxamide], the IC50 on MER, at c-MET and at AXL was less than 10 nM throughout.

In the case of `CN1CCC(CC#Cc2c(Oc3ccc(NC(=O)c4nn(C)c(=O)n(-c5ccc(F)cc5)c4=O)cc3F)ccnc2N)CC1` [Example 45, N-(4-((2-amino-3-(3-(1-methylpiperidin-4-yl)prop-1-yn-1-yl)pyridin-4-yl)oxy)-3-fluorophenyl)-4-(4-fluorophenyl)-2-methyl-3,5-dioxo-2,3,4,5-tetrahydro-1,2,4-triazine-6-carboxamide], the IC50 against MER is less than 100 nM; against c-MET, less than 1000 nM; against AXL, less than 100 nM.

Take `Cn1nc(C(=O)Nc2ccc(Oc3ccnc(N)c3C#CCC3CCNCC3)c(F)c2)c(=O)n(-c2ccc(F)cc2)c1=O` [Example 46, N-(4-((2-amino-3-(3-(piperidin-4-yl)prop-1-yn-1-yl)pyridin-4-yl)oxy)-3-fluorophenyl)-4-(4-fluorophenyl)-2-methyl-3,5-dioxo-2,3,4,5-tetrahydro-1,2,4-triazine-6-carboxamide]: the IC50 is less than 100 nM against MER, less than 100 nM against c-MET and less than 10 nM against AXL.

Turning to `Cn1nc(C(=O)Nc2ccc(Oc3ccnc(N)c3C#CC(C)(C)N3CCNCC3)c(F)c2)c(=O)n(-c2ccc(F)cc2)c1=O` [Example 47, N-(4-(2-amino-3-(3-methyl-3-(piperazin-1-yl)but-1-ynyl)pyridin-4-yloxy)-3-fluorophenyl)-4-(4-fluorophenyl)-2-methyl-3,5-dioxo-2,3,4,5-tetrahydro-1,2,4-triazine-6-carboxamide], the results for the IC50 against MER, against c-MET and against AXL were less than 100 nM, less than 1000 nM and less than 10 nM, respectively.

For `Cn1nc(C(=O)Nc2ccc(Oc3ccnc(N)c3C#CC(C)(C)N3CCOCC3)c(F)c2)c(=O)n(-c2ccc(F)cc2)c1=O` [Example 48, N-(4-(2-amino-3-(3-methyl-3-morpholinobut-1-ynyl)pyridin-4-yloxy)-3-fluorophenyl)-4-(4-fluorophenyl)-2-methyl-3,5-dioxo-2,3,4,5-tetrahydro-1,2,4-triazine-6-carboxamide], the IC50 on MER was less than 1000 nM; against c-MET, less than 100 nM; at AXL, less than 100 nM.
